Consider 3 molecules from ChEMBL document CHEMBL3865793, “Non-specific binding sites help to explain mixed inhibition in mushroom tyrosinase activities” (Eur J Med Chem, 2016).

As a reminder, the IC50 is the midpoint of a concentration-inhibition curve. A higher IC50 goes with lower potency. Usually Ki stands for the equilibrium dissociation constant of an inhibitor or competing ligand from its target. A higher Ki goes with lower affinity. Usually Vmax stands for the top rate of the reaction or transport when substrate is in excess.

Data set [1] has as its target T1, Mushroom tyrosinase (Agaricus bisporus) (UniProt O42713+Q00024+C7FF04+C7FF05). The data set is described as follows: Activation of cresolase activity of mushroom tyrosinase at >5 uM after 15 mins using 4-[(4-Methylphenyl) azo]-phenol as substrate.
Data set [2] has as its target T1, Mushroom tyrosinase (Agaricus bisporus). The data set is described as follows: Inhibition of cresolase activity of mushroom tyrosinase at 0 to 10.5 uM using 23 to 50.05 uM of 4-[(4-Methylphenyl) azo]-phenol as substrate.
The target is the same in data set [3]. As to the kind of experiment: Activation of cresolase activity of mushroom tyrosinase assessed as activation constant after 15 mins using 4-[(4-Methylphenyl) azo]-phenol as substrate.
Data set [4] has the same target. As to the kind of experiment: Mixed type activation of cresolase activity of mushroom tyrosinase using 4-[(4-Methylphenyl) azo]-phenol as substrate by Dixon plot analysis.
For data set [5] the target is unchanged. As to the kind of experiment: Activation of cresolase activity of mushroom tyrosinase assessed as inverse of activation constant after 15 mins using 4-[(4-Methylphenyl) azo]-phenol as substrate.
For data set [6] the target is unchanged. As to the kind of experiment: Activation of cresolase activity of mushroom tyrosinase at <= 10 uM after 15 mins using 4-[(4-Methylphenyl) azo]-phenol as substrate relative to untreated control.
The target is the same in data set [7]. As to the kind of experiment: Mixed type activation of cresolase activity of mushroom tyrosinase at 5 to 10.5 uM using 4-[(4-Methylphenyl) azo]-phenol as substrate by Lineweaver-Burk plot analysis.
The target is the same in data set [8]. The data set is described as follows: Inhibition of cresolase activity of mushroom tyrosinase at <5 uM using 4-[(4-Methylphenyl) azo]-phenol as substrate.
The target is the same in data set [9]. The data set is described as follows: Activation of cresolase activity of mushroom tyrosinase at <= 150 uM after 15 mins using 4-[(4-Methylphenyl) azo]-phenol as substrate relative to untreated control.
Data set [10] shares this target. As to the kind of experiment: Inhibition of cresolase activity of mushroom tyrosinase at >150 uM using 4-[(4-Methylphenyl) azo]-phenol as substrate measured after 15 mins by spectrophotometric method.
Data set [11] shares this target. The data set is described as follows: Activation of cresolase activity of mushroom tyrosinase at 50 to 150 uM using 4-[(4-Methylphenyl) azo]-phenol as substrate by Lineweaver-Burk plot analysis.
The target is the same in data set [12]. As to the kind of experiment: Activation of cresolase activity of mushroom tyrosinase assessed as dissociation constant for substrate after 15 mins using 4-[(4-Methylphenyl) azo]-phenol as substrate.
The next data set addresses Mushroom tyrosinase (Agaricus bisporus, UniProt O42713+Q00024+C7FF04+C7FF05). The data set is described as follows: Inhibition of cresolase activity of mushroom tyrosinase using 4-[(4-Methylphenyl) azo]-phenol as substrate measured after 15 mins by spectrophotometric method.
In data set [13] the target is T1, Mushroom tyrosinase (Agaricus bisporus). As to the kind of experiment: Activation of cresolase activity of mushroom tyrosinase at <150 uM using 4-[(4-Methylphenyl) azo]-phenol as substrate measured after 15 mins by spectrophotometric method.
Data set [14] has the same target. The data set is described as follows: Activation of cresolase activity of mushroom tyrosinase at 18 uM using 4-[(4-Methylphenyl) azo]-phenol as substrate by Dixon plot analysis.
Data set [15] has the same target. As to the kind of experiment: Inhibition of cresolase activity of mushroom tyrosinase at 0 to 450 uM using 18 to 61 uM of 4-[(4-Methylphenyl) azo]-phenol as substrate.
The next data set concerns O=C(O)/C=C/c1ccccc1. The data set is described as follows: (§1) Activation of cresolase activity of mushroom tyrosinase assessed as Vmax after 15 mins using 4-[(4-Methylphenyl) azo]-phenol as substrate. The settings on record: Agaricus bisporus.
In another data set the test system is O=C(O)c1ccccc1C(=O)O. The data set is described as §1. The settings on record: Agaricus bisporus.

Calls of active or inactive are those of the source. The calls are words filed in the database; no cut-off is given here.

Sequence of Mushroom tyrosinase (Agaricus bisporus) (from UniProt O42713+Q00024+C7FF04+C7FF05) (C7FF05 whole entry, looked up): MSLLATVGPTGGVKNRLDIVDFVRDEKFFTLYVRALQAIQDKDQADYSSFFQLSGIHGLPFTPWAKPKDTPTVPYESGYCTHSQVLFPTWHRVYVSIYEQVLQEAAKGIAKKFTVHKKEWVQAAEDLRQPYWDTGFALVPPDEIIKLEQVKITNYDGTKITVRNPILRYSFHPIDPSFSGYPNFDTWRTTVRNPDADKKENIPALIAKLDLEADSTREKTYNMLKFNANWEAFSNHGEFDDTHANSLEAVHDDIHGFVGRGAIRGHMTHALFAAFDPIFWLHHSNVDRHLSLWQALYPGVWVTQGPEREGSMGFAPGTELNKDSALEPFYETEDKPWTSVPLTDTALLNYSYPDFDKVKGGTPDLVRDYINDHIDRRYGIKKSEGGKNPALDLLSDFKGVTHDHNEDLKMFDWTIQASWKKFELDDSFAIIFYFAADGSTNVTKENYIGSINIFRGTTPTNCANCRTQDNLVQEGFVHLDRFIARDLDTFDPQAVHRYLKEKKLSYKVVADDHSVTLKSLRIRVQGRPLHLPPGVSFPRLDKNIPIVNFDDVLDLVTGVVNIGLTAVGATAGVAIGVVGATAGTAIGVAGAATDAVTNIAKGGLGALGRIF
Sequence of Mushroom tyrosinase (Agaricus bisporus) (from UniProt O42713+Q00024+C7FF04+C7FF05) (C7FF04 whole entry, looked up): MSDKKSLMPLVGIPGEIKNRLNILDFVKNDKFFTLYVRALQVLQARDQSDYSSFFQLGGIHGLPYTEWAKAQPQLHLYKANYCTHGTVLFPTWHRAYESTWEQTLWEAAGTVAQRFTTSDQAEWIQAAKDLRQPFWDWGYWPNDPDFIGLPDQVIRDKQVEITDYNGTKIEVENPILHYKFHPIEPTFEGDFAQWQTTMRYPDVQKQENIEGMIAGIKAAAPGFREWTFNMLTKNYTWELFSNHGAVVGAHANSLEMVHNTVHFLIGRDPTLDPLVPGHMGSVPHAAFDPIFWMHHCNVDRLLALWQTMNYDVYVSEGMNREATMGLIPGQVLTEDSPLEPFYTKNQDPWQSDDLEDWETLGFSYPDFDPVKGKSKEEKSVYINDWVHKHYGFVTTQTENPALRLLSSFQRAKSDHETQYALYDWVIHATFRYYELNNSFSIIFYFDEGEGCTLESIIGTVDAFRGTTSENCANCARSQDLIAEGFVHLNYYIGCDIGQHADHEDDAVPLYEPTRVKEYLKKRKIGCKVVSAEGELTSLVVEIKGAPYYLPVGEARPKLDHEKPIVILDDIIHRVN
Sequence of Mushroom tyrosinase (Agaricus bisporus) (from UniProt O42713+Q00024+C7FF04+C7FF05) (Q00024 whole entry, looked up): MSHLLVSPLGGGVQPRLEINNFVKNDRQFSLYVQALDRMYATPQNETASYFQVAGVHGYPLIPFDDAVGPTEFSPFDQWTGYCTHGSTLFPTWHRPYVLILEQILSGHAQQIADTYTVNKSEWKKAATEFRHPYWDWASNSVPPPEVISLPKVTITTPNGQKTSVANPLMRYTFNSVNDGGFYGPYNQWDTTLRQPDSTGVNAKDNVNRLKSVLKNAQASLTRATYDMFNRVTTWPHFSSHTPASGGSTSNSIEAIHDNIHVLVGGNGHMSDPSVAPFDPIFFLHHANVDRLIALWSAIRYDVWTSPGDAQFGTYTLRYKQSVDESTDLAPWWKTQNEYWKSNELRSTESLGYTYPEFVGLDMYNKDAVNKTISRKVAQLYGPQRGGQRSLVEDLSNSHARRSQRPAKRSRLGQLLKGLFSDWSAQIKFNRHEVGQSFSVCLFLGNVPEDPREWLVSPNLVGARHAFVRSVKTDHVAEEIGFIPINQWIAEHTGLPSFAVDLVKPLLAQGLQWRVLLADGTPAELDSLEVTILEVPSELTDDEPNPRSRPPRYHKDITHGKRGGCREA
Sequence of Mushroom tyrosinase (Agaricus bisporus) (from UniProt O42713+Q00024+C7FF04+C7FF05) (O42713 whole entry, looked up): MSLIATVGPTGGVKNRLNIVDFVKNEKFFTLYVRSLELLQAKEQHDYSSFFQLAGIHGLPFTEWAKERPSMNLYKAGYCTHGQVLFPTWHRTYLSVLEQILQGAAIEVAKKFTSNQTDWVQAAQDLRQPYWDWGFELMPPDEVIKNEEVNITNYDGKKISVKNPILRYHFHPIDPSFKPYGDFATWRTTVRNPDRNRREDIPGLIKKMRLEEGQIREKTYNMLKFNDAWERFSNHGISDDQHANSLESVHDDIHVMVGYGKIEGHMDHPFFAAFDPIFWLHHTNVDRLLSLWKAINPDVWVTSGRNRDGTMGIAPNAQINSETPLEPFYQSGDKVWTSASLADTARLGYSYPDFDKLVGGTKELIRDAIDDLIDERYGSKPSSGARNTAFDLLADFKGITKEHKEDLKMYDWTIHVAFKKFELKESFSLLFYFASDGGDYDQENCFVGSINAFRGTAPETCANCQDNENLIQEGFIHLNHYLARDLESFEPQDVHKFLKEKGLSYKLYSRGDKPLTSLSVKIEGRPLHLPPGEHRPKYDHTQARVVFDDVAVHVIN

Turning to `O=C(O)/C=C/c1ccccc1`, the result in data set [1], in data set [4] and in data set [7] was Active. Also, the inhibition entry in data set [2] and in data set [8] was “Active” in each case. In addition, in data set [3], the KA turned out to be 5.41 µM. For the same molecule, the Ka in data set [5] came out at 185 mM⁻¹. In addition, the fold change (FC) in data set [6] turned out to be 2.
With `O=C(O)c1ccccc1C(=O)O` [PHTHALIC ACID], the Activity in data set [9] lay within 11 to 23%. In addition, in data set [3], the KA stood at 10.9 µM. Also, the inhibition result in data set [10] and in [15] was “Active” throughout. The outcome in data set [11], in [13] and in [14] was Active. Moreover, the Ka in data set [5] is 91.3 mM⁻¹. For the same molecule, in data set [12], the K was 67.2 µM. Besides, the 50% inhibitory concentration (IC50) against Mushroom tyrosinase is 271.79 µM. Also, the Ki at Mushroom tyrosinase stood at 100 µM.
As to “Mushroom tyrosinase (Agaricus bisporus) (from UniProt O42713+Q00024+C7FF04+C7FF05)”, the Vmax in the data set on O=C(O)/C=C/c1ccccc1 came to 7.9 µM/min; with O=C(O)c1ccccc1C(=O)O, 14.5 µM/min.
